“Also recorded” adds a separate entry of the source.
Assays:
Assay type in all cases: cell-based
[1] = tested on: primary CD3+ T lymphocytes; experiment: Mixed-cell assay, T lymphocytes in mixed PBMC population by flow cytometry; conditions: up to 50 μM; healthy, PV and SLE plasma; FIG. 5F
Description: (§1) 0.5×10^6 primary cells (purified CD19+ primary B cells (Precision for Medicine, MD) or 0.5×10^6 CD3+ primary T cells (Precision for Medicine, MD Primary PBMCs (Precision for Medicine, MD) from a healthy donor were stimulated with 10% v/v plasma from either a healthy donor, a pemphigus vulgaris (PV) donor, or a systemic lupus erythematosus (SLE) donor for 24 hours at 37 C, 5% CO2. Compound OTG177 was added at 1 μM, 10 μM and 50 μM concentrations with DMSO as a mock treatment. After 24 hours-72 hours of treatment, cells were labeled with anti-CD45 antibody (5 μl/million cells in 100 μl volume, clone HI30, BUV395, Biolegend, CA), anti-CD19 antibody (5 μl per million cells in 100 μl volume, Clone HIB, PE-CF594, Biolegend, CA) anti-CD3 antibody (5 μl/million cells in 100 μl volume, clone SK7, FITC, Biolegend, CA). Propidium (1 μg/ml) was used to select cells based on their viability. The cells were analyzed by multi-colored flow cytometry using an Attune NxT Flow Cytometer (ThermoFisher).
(§2) In addition, the effect of OTG177 on B and T lymphocytes was examined by first gating all PBMCs by forward scattering (FSC) versus side scattering (SSC) and isolating the low SSC and high FSC population (FIG. 5C), gating on this selection, the populations of segregated based on their staining to CD19 (red) and CD3 antibodies (green) (FIG. 5D).

CD19+ primary B cells = experiment: BrdU incorporation proliferation assay, primary B cells stimulated with donor plasma; conditions: OTG177 up to 1000 μM, 72 hours
Description: (§3) 0.5×10^6 primary cells (purified CD19+ primary B cells, Precision for Medicine, MD) or 0.5×10^6 CD3+ primary T cells (Precision for Medicine, MD) from a healthy donor were assayed for their rate of proliferation via the BrdU incorporation method (Roche kit 11647229001), following vendor protocols. In brief, BrdU was added to cell culture for 2 hours-12 hours. The cells were dried with hot air ventilation and fixed with saline and ethanol. The incorporated BrdU was measured with an ELISA assay with an anti BrdU antibody (Roche).
(§4) A representative compound according to the disclosure, OTG177 (FIG. 4), was constructed according to the synthetic scheme shown in FIGS. 2A and 2B using the Bait CD10 substrate succinyl-Ala-Ala-Phe- and an antiproliferative Payload RMP. This compound was tested in this proliferation assay as follows: negative selected lymphocytes (either B or T cells) were incubated with different concentration of OTG177 up to 1000 μM with 10% plasma from either a healthy donor or a flaring Pemphigus Vulgaris donor. All conditions had 30 units/ml of heparin to prevent clotting of the plasma. Cells were incubated for 72 hours at 37° C. 5% CO2 and a BrdU incorporation assay was performed with kit (Roche) as described before.

[2] = tested on: primary CD19+ B lymphocytes; experiment: Mixed-cell assay, B lymphocytes in mixed PBMC population by flow cytometry; conditions: FIG. 5E; for suppression of B cell proliferation in mixed PBMC population: 1 μM to 50 μM range
Description: as §1, §2

[3] = tested on: PBMC (granulocytes, monocytes, lymphocytes); experiment: Mixed-cell assay, PBMC composition by flow cytometry (SSC vs CD45); conditions: up to 50 μM; healthy, PV or SLE donor plasma; FIG. 5B
Description: as §1
Overall peripheral blood mononuclear cell (PBMC) composition was evaluated by gating side scattering (SSC) versus CD45, a pan leukocyte marker (FIG. 5A). This gating strategy can differentiate different leukocyte populations based on their scattering profiles.

CD3+ primary T cells = experiment: BrdU incorporation proliferation assay, primary T cells stimulated with donor plasma; conditions: OTG177 up to 1000 μM, 72 hours
Description: as §3, §4

C[C@H](NC(=O)CCC(=O)O)C(=O)N[C@@H](C)C(=O)N[C@@H](Cc1ccccc1)C(=O)Nc1ccc2c(c1)COP(=O)(OC[C@H]1O[C@@H](n3cnc(C(N)=O)n3)[C@H](O)[C@@H]1O)O2 (stereo partly drawn) [OTG177, 4-[[(1S)-2-[[(1S)-2-[[(1S)-1-benzyl-2-[[2-[[(2R,3S,4R,5R)-5-(3-carbamoyl-1,2,4-triazol-1-yl)-3,4-dihydroxy-tetrahydrofuran-2-yl]methoxy]-2-oxo-4H-1,3,2benzodioxaphosphinin-6-yl]amino]-2-oxo-ethyl]amino]-1-methyl-2-oxo-ethyl]amino]-1-methyl-2-oxo-ethyl]amino]-4-oxo-butanoic Acid]
effect on T cells in mixed PBMC population [1]: not affected; also recorded: no obvious effect
antiproliferative activity in B cells (CD19+ primary B cells; 10% flaring pemphigus vulgaris donor's plasma, FIG. 4C): strong antiproliferative activity
antiproliferative activity in B cells (CD19+ primary B cells; 10% healthy donor's plasma, FIG. 4B): did not exhibit detectable antiproliferative activity
suppression of B cell proliferation in mixed PBMC population ([2]; stimulated with PV plasma): dose-dependent suppression; also recorded: suppressive effect
suppression of B cell proliferation in mixed PBMC population ([2]; stimulated with SLE plasma): dose-dependent suppression; also recorded: suppressive effect
effect on B cells in mixed PBMC population ([2]; stimulated with healthy plasma, 1, 10, 50 μM): not affected
effect on PBMC composition (% granulocytes, monocytes, lymphocytes) [3]: not affected; also recorded: does not have obvious effects
antiproliferative activity in T cells (CD3+ primary T cells; 10% flaring pemphigus vulgaris donor's plasma, FIG. 4E): did not exhibit antiproliferative activity
antiproliferative activity in T cells (CD3+ primary T cells; 10% healthy donor's plasma, FIG. 4D): did not exhibit antiproliferative activity
